Measurements published in patent US8048825B2, “Haloalkylsulfonanilide derivatives or salt thereof, herbicide comprising the derivatives as active ingredient, and use of the herbicide” (Nihon Nohyaku Co., Ltd., priority 2006, dated 2011).

Assays:
Type in all cases: in vivo
Lindernia procumbens [1] = experiment: Herbicidal efficacy on paddy field weeds of pre-emergence stage (Pre), Test Example 1; details: 1000 g/ha as active ingredient, examined after 21 days
In short: (§1)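 Pre-emergence paddy test: 1000 g/ha active ingredient, formulated and water-diluted, dropped onto 5 cm floodwater one day after sowing both weeds in clay loam. After 21 days in greenhouse, inhibition relative to untreated control rated on 0 (0%) to 5 (100%) scale.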

Scirpus juncoides [2] = experiment: as above; details: 1000 g/ha as active ingredient, examined after 21 days
In short: as §1

Echinochloa crus-galli = experiment: Herbicidal effect on paddy field weeds of post-emergence stage (Post), Test Example 2; details: one-leaf stage, 1000 g/ha as active ingredient, examined after 21 days
In short: (§2)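 Post-emergence paddy test: formulated compound added to 5 cm standing water at 1000 g/ha a.i. when weeds reached one-leaf stage in clay loam pots in greenhouse. Growth inhibition rated 21 days later versus untreated control on a 0 (0%) to 5 (100%) scale.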

Lindernia procumbens [3] = experiment: as above; details: one-leaf stage, 1000 g/ha as active ingredient, examined after 21 days
In short: as §2

Scirpus juncoides [4] = experiment: as above; details: one-leaf stage, 1000 g/ha as active ingredient, examined after 21 days
In short: as §2

SMILES	Lindernia procumbens pre (herbicidal effect) (Lindernia procumbens [1])	Scirpus juncoides pre (herbicidal effect) (Scirpus juncoides [2])	Echinochloa crus-galli post (herbicidal effect) (Echinochloa crus-galli)	Lindernia procumbens post (herbicidal effect) (Lindernia procumbens [3])	Scirpus juncoides post (herbicidal effect) (Scirpus juncoides [4])
CCOC(=O)N(c1ccccc1CN1CCC(c2c(C)cccc2C)OC1=O)S(=O)(=O)C(F)(F)F (centres unmarked) [Compound 1-362]	5 (100% herbicidal effect, phytotoxicity)	4 (90%-99% herbicidal effect, phytotoxicity)	4 (90%-99% herbicidal effect, phytotoxicity)	5 (100% herbicidal effect, phytotoxicity)	4 (90%-99% herbicidal effect, phytotoxicity)
CCOC(=O)N(c1ccccc1CN1CCC(C)(C)OC1=O)S(=O)(=O)C(F)(F)F [Compound 1-47]	4 (90%-99% herbicidal effect, phytotoxicity)	4 (90%-99% herbicidal effect, phytotoxicity)	4 (90%-99% herbicidal effect, phytotoxicity)	4 (90%-99% herbicidal effect, phytotoxicity)	4 (90%-99% herbicidal effect, phytotoxicity)
CC(C)COC(=O)N(c1ccccc1CN1CC(C)(C)COC1=O)S(=O)(=O)C(F)(F)F [Compound 1-28]	4 (90%-99% herbicidal effect, phytotoxicity)	4 (90%-99% herbicidal effect, phytotoxicity)	4 (90%-99% herbicidal effect, phytotoxicity)	4 (90%-99% herbicidal effect, phytotoxicity)	4 (90%-99% herbicidal effect, phytotoxicity)
CC1(C)COC(=O)N(Cc2ccccc2NS(=O)(=O)C(F)(F)F)C1 [Compound 1-23]	4 (90%-99% herbicidal effect, phytotoxicity)	4 (90%-99% herbicidal effect, phytotoxicity)	4 (90%-99% herbicidal effect, phytotoxicity)	4 (90%-99% herbicidal effect, phytotoxicity)	4 (90%-99% herbicidal effect, phytotoxicity)
CCOC(=O)N(c1ccccc1CN1CCC(C)(c2c(F)cccc2F)OC1=O)S(=O)(=O)C(F)(F)F (racemic) [Compound 1-441]	5 (100% herbicidal effect, phytotoxicity)	5 (100% herbicidal effect, phytotoxicity)	5 (100% herbicidal effect, phytotoxicity)	5 (100% herbicidal effect, phytotoxicity)	4 (90%-99% herbicidal effect, phytotoxicity)
CCC1(C(F)(F)F)CCN(Cc2ccccc2N(C(=O)OCCCl)S(=O)(=O)C(F)(F)F)C(=O)O1 (centres unmarked) [Compound 1-415]	5 (100% herbicidal effect, phytotoxicity)	5 (100% herbicidal effect, phytotoxicity)	5 (100% herbicidal effect, phytotoxicity)	5 (100% herbicidal effect, phytotoxicity)	4 (90%-99% herbicidal effect, phytotoxicity)
CC(C)COC(=O)N(c1ccccc1CN1CCC(C(F)(F)F)(C(F)(F)F)OC1=O)S(=O)(=O)C(F)(F)F [Compound 1-343]	5 (100% herbicidal effect, phytotoxicity)	5 (100% herbicidal effect, phytotoxicity)	4 (90%-99% herbicidal effect, phytotoxicity)	5 (100% herbicidal effect, phytotoxicity)	4 (90%-99% herbicidal effect, phytotoxicity)
CC1(C)CN(Cc2ccccc2NS(=O)(=O)C(F)(F)F)C(=O)OC1c1ccccc1 (centres unmarked) [Compound 1-261]	5 (100% herbicidal effect, phytotoxicity)	5 (100% herbicidal effect, phytotoxicity)	4 (90%-99% herbicidal effect, phytotoxicity)	5 (100% herbicidal effect, phytotoxicity)	4 (90%-99% herbicidal effect, phytotoxicity)
CCC1(C)CCN(Cc2ccccc2N(C(=O)OCC(C)(C)C)S(=O)(=O)C(F)(F)F)C(=O)O1 (centres unmarked) [Compound 1-75]	4 (90%-99% herbicidal effect, phytotoxicity)	4 (90%-99% herbicidal effect, phytotoxicity)	4 (90%-99% herbicidal effect, phytotoxicity)	4 (90%-99% herbicidal effect, phytotoxicity)	4 (90%-99% herbicidal effect, phytotoxicity)
CC1(C2CCC2)CCN(Cc2ccccc2NS(=O)(=O)C(F)(F)F)C(=O)O1 (centres unmarked) [Compound 1-382]	5 (100% herbicidal effect, phytotoxicity)	5 (100% herbicidal effect, phytotoxicity)	4 (90%-99% herbicidal effect, phytotoxicity)	5 (100% herbicidal effect, phytotoxicity)	4 (90%-99% herbicidal effect, phytotoxicity)
CCOC(=O)N(c1ccccc1CN1CCC(C)(C2CCC2)OC1=O)S(=O)(=O)C(F)(F)F (centres unmarked) [Compound 1-384]	5 (100% herbicidal effect, phytotoxicity)	5 (100% herbicidal effect, phytotoxicity)	4 (90%-99% herbicidal effect, phytotoxicity)	5 (100% herbicidal effect, phytotoxicity)	4 (90%-99% herbicidal effect, phytotoxicity)
CCC1(C(F)(F)F)CCN(Cc2ccccc2NS(=O)(=O)C(F)(F)F)C(=O)O1 (centres unmarked) [Compound 1-91]	5 (100% herbicidal effect, phytotoxicity)	4 (90%-99% herbicidal effect, phytotoxicity)	4 (90%-99% herbicidal effect, phytotoxicity)	5 (100% herbicidal effect, phytotoxicity)	4 (90%-99% herbicidal effect, phytotoxicity)
CCC1(c2ccccc2)CCN(Cc2ccccc2NS(=O)(=O)C(F)(F)F)C(=O)O1 (centres unmarked) [Compound 1-316]	5 (100% herbicidal effect, phytotoxicity)	4 (90%-99% herbicidal effect, phytotoxicity)	4 (90%-99% herbicidal effect, phytotoxicity)	5 (100% herbicidal effect, phytotoxicity)	4 (90%-99% herbicidal effect, phytotoxicity)
CCC1(c2ccccc2)CCN(Cc2ccccc2N(C(=O)OC)S(=O)(=O)C(F)(F)F)C(=O)O1 (centres unmarked) [Compound 1-317]	5 (100% herbicidal effect, phytotoxicity)	4 (90%-99% herbicidal effect, phytotoxicity)	4 (90%-99% herbicidal effect, phytotoxicity)	5 (100% herbicidal effect, phytotoxicity)	4 (90%-99% herbicidal effect, phytotoxicity)
CCCCOC(=O)N(c1ccccc1CN1CCCOC1=S)S(=O)(=O)C(F)(F)F [Compound 1-16]	4 (90%-99% herbicidal effect, phytotoxicity)	4 (90%-99% herbicidal effect, phytotoxicity)	4 (90%-99% herbicidal effect, phytotoxicity)	4 (90%-99% herbicidal effect, phytotoxicity)	4 (90%-99% herbicidal effect, phytotoxicity)
CCCC1(CC)CCN(Cc2ccccc2N(C(=O)Oc2ccccc2)S(=O)(=O)C(F)(F)F)C(=O)O1 (racemic) [Compound 1-501]	5 (100% herbicidal effect, phytotoxicity)	5 (100% herbicidal effect, phytotoxicity)	5 (100% herbicidal effect, phytotoxicity)	5 (100% herbicidal effect, phytotoxicity)	4 (90%-99% herbicidal effect, phytotoxicity)
CC(C)COC(=O)N(c1ccccc1CN1CCC(C)(C2(C)CC2)OC1=O)S(=O)(=O)C(F)(F)F (centres unmarked) [Compound 1-376]	5 (100% herbicidal effect, phytotoxicity)	5 (100% herbicidal effect, phytotoxicity)	4 (90%-99% herbicidal effect, phytotoxicity)	5 (100% herbicidal effect, phytotoxicity)	4 (90%-99% herbicidal effect, phytotoxicity)
CCOC(=O)N(c1ccccc1CN1CCC(C)(c2ccccc2F)OC1=O)S(=O)(=O)C(F)(F)F (racemic) [Compound 1-430]	5 (100% herbicidal effect, phytotoxicity)	5 (100% herbicidal effect, phytotoxicity)	4 (90%-99% herbicidal effect, phytotoxicity)	5 (100% herbicidal effect, phytotoxicity)	4 (90%-99% herbicidal effect, phytotoxicity)
O=C1OC(c2c(Cl)cccc2Cl)CCN1Cc1ccccc1NS(=O)(=O)C(F)(F)F (centres unmarked) [Compound 1-272]	5 (100% herbicidal effect, phytotoxicity)	4 (90%-99% herbicidal effect, phytotoxicity)	4 (90%-99% herbicidal effect, phytotoxicity)	5 (100% herbicidal effect, phytotoxicity)	4 (90%-99% herbicidal effect, phytotoxicity)
